Laboratory results reported in patent publication US20180037605A1, “SYNTHETIC PEPTIDES AND ENZYMATIC FORMATION OF INTRACELLULAR HYDROGELS” (BRANDEIS UNIVERSITY, priority 2015, published 2018).
Converted amounts (≈) assume the structure as drawn.

Assays:
[1] = system: co-cultured HS-5 and SKOV3 cells; assay: Cell viability of co-cultured HS-5 and SKOV3 cells; type: cell-based; settings: D-10 37 μg/mL
Experimental: (§1) 5×10^3 of SKOV3 cells (or A2780cis) and 5×10^3 HS-5 cells per well were seeded together and co-cultured in DMEM medium. Based on the results in FIG. 22, the concentrations of L-10 and D-10 at 73 and 37 μg/mL, respectively, were chosen. […] The inhibitory activities of L-10 and D-10 towards the co-culture agree well with their cytotoxicity against A2780cis, SKOV3, and H-5 cells. […] For example, on the first day, the cell viabilities of co-cultured HS-5 and SKOV3 cells and co-cultured HS-5 and A2780cis cells treated by D-10 (37 μg/mL) were 79% and 80%, respectively. While on the third day, the cell viabilities dropped to 44% and 57%, respectively. […] Contrary to the case of D-10, the efficacies of L-10 were almost the same between day two and day three (FIG. 25A), which agreed with the lower in vivo stability of L-10 than that of D-10.

MES-SA/D×5 cells = assay: MTT cell viability, MES-SA/D×5; type: cell-based; settings: third day (72 h)
Experimental: (§3) The cells were seeded in exponential growth phase in a 96 well plate at a concentration of 1×10^4 cell/well with 100 μL of culture medium. Cells were allowed to attach for 24 hours at 37° C., 5% CO2 and then the culture medium was removed with the help of vacuum pump. Culture medium containing the precursors in gradient concentrations was added to each well (0 μM as control). 10 μL of 5 mg/mL MTT ((3-(4,5-Dimethylthiazol-2-yl)-2,5-diphenyltetrazolium bromide) was added to each well after 24 hours, 48 hours, and 72 hours incubation. After 4 hours incubation of the plated cells in dark place, 100 μL 10% SDS with 0.01 M HCl was added to each well to dissolve the purple formazan and to stop the reduction reaction. 24 hours later, the absorbance of the solution at 595 nm was finally measured with a DTX 880 Multimode Detector.

in vitro = settings: human
Experimental: as §3

MCF-7 cells = assay: MTT cell viability, MCF-7; type: cell-based; settings: third day (72 h)
Experimental: as §3

HS-5 cells [2] = assay: MTT cell viability, HS-5 stromal cells; settings: 20 μM (D-10) and 50 μM (L-10)
Experimental: as §3

SKOV3 cells [3] = system: SKOV3 cells
Experimental: SKOV3 cells were seeded in exponential growth phase in a 96 well plate at a concentration of 1×10^4 cell/well with 100 μL of McCoy's 5A medium modified supplemented with 10% fetal bovine serum (FBS), 100 U/mL penicillin and 100 μg/ml streptomycin. The cells were allowed to attach to the wells for 24 hours at 37° C., 5% CO2. The culture medium was removed and 100 μL culture medium containing compounds (immediately diluted from fresh prepared stock solution of 10 mM) at gradient concentrations (0 μM as the control) was placed into each well. McCoy's 5A medium modified was regarded as blank. After culturing at 37° C., 5% CO2 for 24 hours, 48 hours, and 72 hours, 10 μL of 5 mg/mL MTT (3-(4,5-Dimethylthiazol-2-yl)-2,5-diphenyltetrazolium bromide) was added to each well, and the plated cells were incubated in dark place for 4 hours. 100 μL 10% SDS with 0.01 M HCl was added to each well to stop the reduction reaction and to dissolve the purple formazan. After incubation of the cells at 37° C. for overnight, the OD at 595 nm of the solution was measured in a microplate reader.
as §3

HeLa cells = assay: MTT cell viability, HeLa; type: cell-based; settings: third day (72 h)
Experimental: D-7 and D-10 (FIG. 12A), the enantiomers of L-7 and L-10, were prepared as described in Example 3. HeLa and SKOV3 cells were used in an MTT assay for assessing cytotoxicity of the peptides against these cancer cell lines.

HCC1937 cells = assay: MTT cell viability, HCC1937; type: cell-based; settings: third day (72 h)
[4] = mouse, in vivo, 20 mg/kg
Saos-2 cells = assay: MTT cell viability, Saos-2; type: cell-based; settings: third day (72 h)
Experimental: as §3

A375 cells = assay: MTT cell viability, A375; type: cell-based; settings: third day (72 h)
Experimental: as §3

A2780 cells = assay: MTT cell viability, A2780; type: cell-based
T98G cells = assay: MTT cell viability, T98G; type: cell-based; settings: 72 hours incubation
Experimental: as §3

HepG2 cells = assay: MTT cell viability, HepG2; type: cell-based; settings: third day (72 h)
Experimental: as §3

U87MG cells = assay: MTT cell viability, U87MG; type: cell-based; settings: 72 hours incubation
Experimental: as §3

[5] = system: co-cultured HS-5 and A2780cis cells; assay: Cell viability of co-cultured HS-5 and A2780cis cells; type: cell-based; settings: D-10 37 μg/mL
Experimental: as §1

A2780cis cells [6] = system: A2780cis cells
[7] = Systemic toxicity after intravenous injection in mice; settings: 5 to 20 mg/kg, after 7 days
PC-12 cells = assay: MTT cell viability, PC-12 neuronal cells; type: cell-based, rat
Experimental: as §3

MES-SA cells = assay: MTT cell viability, MES-SA; type: cell-based; settings: third day (72 h)
Experimental: as §3

A2780cis cells [8] = assay: LC-MS of cell lysates, A2780cis; type: cell-based; settings: 100 μm D-10
Experimental: (§2) After confirming that CES converts the precursor L-10 or D-10 into the hydrogelator L-12 or D-12, the stability of the precursors (L-10 or D-10) when incubated with the ovarian cancer cells was determined. After culturing the precursors with SKOV3 or A2780cis cells at 37° C. for 4 hours, the cell lysates and culture medium were collected for liquid chromatography-mass spectrometry (LC-MS) analysis and the intracellular concentrations of the precursors, the hydrogelators, and the relevant proteolyzed products were determined. After incubation with SKOV3 or A2780cis cells for 4 hours, more than 85% of the precursors (L-10 or D-10) turned into the corresponding hydrogelators (L-12 or D-12; see Table 1 below).

SKOV3 cells [9] = assay: LC-MS of cell lysates and culture medium, SKOV3; type: cell-based
Experimental: as §2

HS-5 cells [10] = settings: 72 h
Experimental: as §3

[11] = combination of D-10 and CP, 72 hours
[12] = SKOV3 cell lysates, 4 hours, 37° C., 20 μm D-10 or 50 μm L-10

SMILES: O=C(CCC(=O)OCCNC(=O)[C@@H](Cc1ccccc1)NC(=O)[C@@H](Cc1ccccc1)NC(=O)Cc1ccc2ccccc2c1)NCCS(=O)(=O)O [D-10]
- cell viability of co-cultured HS-5 and SKOV3 cells ([1]; first day): 79%
- cell viability of co-cultured HS-5 and SKOV3 cells ([1]; third day): 44%
- IC50, MES-SA/D×5 (MES-SA/D×5 cells): 163 µg/mL (≈ 223 µM)
- viability at 3 day, 37 μg/mL (in vitro): ~80%
- IC50, MCF-7 (MCF-7 cells): 25 µg/mL (≈ 34.2 µM)
- inhibition of HS-5 cells (HS-5 cells [2]): hardly inhibited
- inhibition of SKOV3 ovarian cancer cells (SKOV3 cells [3]; 48 h, 50 μM): over 70%
- IC50, SKOV3 (SKOV3 cells [3]; 72 h): 31 µg/mL (≈ 42.4 µM)
- inhibition of SKOV3 cells by mixture with CP (SKOV3 cells [3]; 72 h, 15 μg/mL): about 74%
- viability of SKOV3 cells (SKOV3 cells [3]; human, 72 hours, 37 μg/mL): 10%
- IC50, HeLa (HeLa cells): 27 µg/mL (≈ 36.9 µM)
- IC50, HCC1937 (HCC1937 cells): 26 µg/mL (≈ 35.6 µM)
- tolerability [4]: well tolerated
- IC50, Saos-2 (Saos-2 cells): 44 µg/mL (≈ 60.2 µM)
- IC50, A375 (A375 cells): 38 µg/mL (≈ 52 µM)
- viability of A2780 cells, combination with CP (A2780 cells; [11]): 9%
- IC50, A2780 (A2780 cells; third day (72 h)): 37 µg/mL (≈ 50.6 µM)
- IC50, T98G (T98G cells): 145 µg/mL (≈ 198 µM)
- IC50, HepG2 (HepG2 cells): 88 µg/mL (≈ 120 µM)
- IC50, U87MG (U87MG cells): 126 µg/mL (≈ 172 µM)
- cell viability of co-cultured HS-5 and A2780cis cells ([5]; first day): 80%
- cell viability of co-cultured HS-5 and A2780cis cells ([5]; third day): 57%
- inhibition of A2780cis cells by combination with CP (A2780cis cells [6]; [11]): 70%
- IC50, A2780cis (A2780cis cells [6]; third day (72 h)): 36 µg/mL (≈ 49.3 µM)
- effect on weight and organ index of mice [7]: hardly affected
- inhibition of PC-12 cells (PC-12 cells; 20 μM (D-10) and 50 μM (L-10)): hardly inhibited
- IC50, PC-12 (PC-12 cells; third day (72 h)): 62 µg/mL (≈ 84.8 µM)
- IC50, MES-SA (MES-SA cells): 31 µg/mL (≈ 42.4 µM)
- Ratio of hydrogelator to precursor after 4 hours (A2780cis cells [8]): 8.43
- Hydrogelator (12) intracellular concentration (A2780cis cells [8]; 4 hours, 37° C.): 582 μm
- Precursor (10) intracellular concentration (A2780cis cells [8]; 4 hours, 37° C.): 69 μm
- cumulative intracellular concentration of precursor and hydrogelator relative to incubation concentration (SKOV3 cells [9]; 4 hours incubation): about 5 fold
- Ratio of hydrogelator to precursor after 4 hours (SKOV3 cells [9]; SKOV3 cell lysates, 20 μm D-10 or 50 μm L-10): 6.75
- Hydrogelator (12) intracellular concentration (SKOV3 cells [9]; [12]): 108 μm
- Precursor (10) intracellular concentration (SKOV3 cells [9]; [12]): 16 μm
- IC50, HS-5 (HS-5 cells [10]): 50 µg/mL (≈ 68.4 µM)
